Consider 4 compounds from US20210236541A1, “IODOPHOR COMPOSITION WITH IMPROVED STABILITY IN THE PRESENCE OF ORGANIC MATERIAL” (priority 2014, published 2021).

Holding throughout (format): cell-based
For one test, the system named is bacterial cells.
The test system of test [1] is E. coli ATCC 25922. As to the kind of experiment: Nebulisation simulation, kill efficiency on inoculated bandage. As to conditions: for performance of the novel iodophor relative to the labelled antibiotic: nebulised, 15 minutes, Levofloxacin and Polymyxin B at all concentrations, Gentamycin 0.1 mg and 1 mg.
A further test has as its system P. aeruginosa. Described as above. As to conditions: 1 mL nebulised, 15 minutes exposure, FIG. 6.
Test [2] has as its system E. coli ATCC 25922. As to the kind of experiment: MIC micro-broth dilution. In general terms: Broth dilution looks for growth in wells or tubes with falling amounts of substance.

With `OO` [Hydrogen peroxide], the “recovery of viable bacterial cells” value in the test with bacterial cells is on record as “recovery of viable cells”. Also, the killing efficiency entry with E. coli ATCC 25922 [1] (1 mL nebulised, 15 minutes exposure, FIG. 5) is given as “limited killing efficiency”; in the test with P. aeruginosa, “limited killing efficiency”.
Take Gentamycin: in the test with E. coli ATCC 25922 [1], the “performance of the novel iodophor relative to the labelled antibiotic” value is on record as “superior”.
Regarding Polymyxin B, the “performance of the novel iodophor relative to the labelled antibiotic” value in the test with E. coli ATCC 25922 [1] is listed as “equivalent performance”.
As usually defined, the MIC is the lowest concentration found to suppress growth. Lower therefore signals greater potency. Compound polyvinylpyrrolidone iodine [PVP-I] yielded an MIC against E. coli ATCC 25922 [2] (in lysogeny broth (LB), text of b30) of 500 µg/mL. Also, in the test with E. coli ATCC 25922 [2] (in water), the “minimum inhibitory concentration (MIC)” value is less than 1 µg/mL. The compound also registered an MBC value against E. coli ATCC 25922 [2] (organic rich growth medium (such as lysogeny broth)) greater than 500 µg/mL.
